Measured values reported in PubChem BioAssay (NCI).
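At the GI50, growth is halved. Definition used: TGI = concentration required for complete inhibition of growth.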

Experiments:
Test in all cases: DTP human tumour cell line panel, 384-well format; in the data active = GI50 below about 0.43 µM; inactive = the rest
SF-539 CNS = system: SF-539 CNS
OVCAR-4 ovarian = system: OVCAR-4 ovarian
NCI-H522 lung = system: NCI-H522 lung
SN12C renal = system: SN12C renal
T-47D breast = system: T-47D breast
SR leukemia = system: SR leukemia
IGROV1 ovarian = system: IGROV1 ovarian
HOP-92 NSCLC = system: HOP-92 NSCLC
MDA-MB-468 breast = system: MDA-MB-468 breast
TK-10 renal = system: TK-10 renal
OVCAR-5 ovarian = system: OVCAR-5 ovarian
HT29 colon = system: HT29 colon
UACC-257 melanoma = system: UACC-257 melanoma
MALME-3M melanoma = system: MALME-3M melanoma
UACC-62 melanoma = system: UACC-62 melanoma
EKVX NSCLC = system: EKVX NSCLC
SF-268 CNS = system: SF-268 CNS
OVCAR-8 ovarian = system: OVCAR-8 ovarian
NCI/ADR-RES ovarian = system: NCI/ADR-RES ovarian
SNB-19 CNS = system: SNB-19 CNS
HCC-2998 colon = system: HCC-2998 colon
MDA-MB-435 melanoma = system: MDA-MB-435 melanoma
BT-549 breast = system: BT-549 breast
NCI-H226 lung = system: NCI-H226 lung
NCI-H460 NSCLC = system: NCI-H460 NSCLC
RPMI-8226 leukemia = system: RPMI-8226 leukemia
OVCAR-3 ovarian = system: OVCAR-3 ovarian
HL-60(TB) leukemia = system: HL-60(TB) leukemia
LOX IMVI melanoma = system: LOX IMVI melanoma
RXF 393 renal = system: RXF 393 renal
KM12 colon = system: KM12 colon
CAKI-1 renal = system: CAKI-1 renal
A549 NSCLC = system: A549 NSCLC
MDA-MB-231 breast = system: MDA-MB-231 breast
ACHN renal = system: ACHN renal
COLO 205 colon = system: COLO 205 colon
MCF7 breast = system: MCF7 breast
NCI-H322M lung = system: NCI-H322M lung
HOP-62 NSCLC = system: HOP-62 NSCLC
HCT-116 colon = system: HCT-116 colon
SF-295 CNS = system: SF-295 CNS
M14 melanoma = system: M14 melanoma
DU-145 prostate = system: DU-145 prostate
PC-3 prostate = system: PC-3 prostate
SNB-75 CNS = system: SNB-75 CNS
NCI-H23 lung = system: NCI-H23 lung
SK-MEL-5 melanoma = system: SK-MEL-5 melanoma
HCT-15 colon = system: HCT-15 colon
A498 renal = system: A498 renal
SK-OV-3 ovarian = system: SK-OV-3 ovarian
SK-MEL-28 melanoma = system: SK-MEL-28 melanoma
U251 glioblastoma = system: U251 glioblastoma
HS 578T breast = system: HS 578T breast
MOLT-4 leukemia = system: MOLT-4 leukemia
SW-620 colon = system: SW-620 colon
UO-31 renal = system: UO-31 renal
K-562 leukemia = system: K-562 leukemia
SK-MEL-2 melanoma = system: SK-MEL-2 melanoma
786-0 renal = system: 786-0 renal
CCRF-CEM leukemia = system: CCRF-CEM leukemia

CCn1c(C(=O)N(C2CC2)C2CC2)cc2c3c(ncn3C)c(Nc3cc(C)n(C)n3)nc21
inactive: GI50 (SF-539 CNS) > 100 µM | GI50 (OVCAR-4 ovarian) 33.4 µM | GI50 (NCI-H522 lung) > 100 µM | GI50 (SN12C renal) 3.43 µM | GI50 (T-47D breast) > 100 µM | GI50 (SR leukemia) 8.59 µM | GI50 (IGROV1 ovarian) 44 µM | GI50 (HOP-92 NSCLC) > 100000 nM | GI50 (MDA-MB-468 breast) > 100 µM | GI50 (TK-10 renal) 81.8 µM | GI50 (OVCAR-5 ovarian) > 100 µM | GI50 (HT29 colon) > 100 µM | GI50 (UACC-257 melanoma) > 100 µM | GI50 (MALME-3M melanoma) > 100 µM | GI50 (UACC-62 melanoma) > 100 µM | GI50 (EKVX NSCLC) > 100 µM | GI50 (SF-268 CNS) > 100 µM | GI50 (OVCAR-8 ovarian) > 100 µM | GI50 (NCI/ADR-RES ovarian) > 100 µM | GI50 (SNB-19 CNS) > 100 µM | GI50 (HCC-2998 colon) > 100000 nM | GI50 (MDA-MB-435 melanoma) > 100 µM | GI50 (BT-549 breast) > 100 µM | GI50 (NCI-H226 lung) > 100 µM | GI50 (NCI-H460 NSCLC) > 100 µM | GI50 (RPMI-8226 leukemia) > 100000 nM | GI50 (OVCAR-3 ovarian) > 100 µM | GI50 (HL-60(TB) leukemia) > 100 µM | GI50 (LOX IMVI melanoma) 49.7 µM | GI50 (RXF 393 renal) > 100000 nM | GI50 (KM12 colon) 675 nM | GI50 (CAKI-1 renal) > 100 µM | GI50 (A549 NSCLC) > 100 µM | GI50 (MDA-MB-231 breast) > 100000 nM | GI50 (ACHN renal) > 100 µM | GI50 (COLO 205 colon) > 100 µM | GI50 (MCF7 breast) > 100 µM | GI50 (NCI-H322M lung) > 100 µM | GI50 (HOP-62 NSCLC) > 100 µM | GI50 (HCT-116 colon) > 100 µM | GI50 (SF-295 CNS) > 100 µM | GI50 (M14 melanoma) > 100 µM | GI50 (DU-145 prostate) > 100 µM | GI50 (PC-3 prostate) > 100 µM | GI50 (SNB-75 CNS) 26.2 µM | GI50 (NCI-H23 lung) > 100 µM | GI50 (SK-MEL-5 melanoma) > 100 µM | GI50 (HCT-15 colon) > 100 µM | GI50 (A498 renal) > 100 µM | GI50 (SK-OV-3 ovarian) 34.8 µM | GI50 (SK-MEL-28 melanoma) > 100 µM | GI50 (U251 glioblastoma) > 100 µM | GI50 (HS 578T breast) > 100 µM | GI50 (MOLT-4 leukemia) 87.2 µM
> 100000 nM: TGI (HOP-92 NSCLC) | TGI (RPMI-8226 leukemia) | TGI (MOLT-4 leukemia)
> 100 µM: TGI (SF-539 CNS) | TGI (OVCAR-4 ovarian) | TGI (NCI-H522 lung) | TGI (SN12C renal) | TGI (T-47D breast) | TGI (IGROV1 ovarian) | TGI (MDA-MB-468 breast) | TGI (TK-10 renal) | TGI (OVCAR-5 ovarian) | TGI (HT29 colon) | TGI (UACC-257 melanoma) | TGI (MALME-3M melanoma) | TGI (UACC-62 melanoma) | TGI (EKVX NSCLC) | TGI (SF-268 CNS) | TGI (OVCAR-8 ovarian) | TGI (NCI/ADR-RES ovarian) | TGI (SNB-19 CNS) | TGI (HCC-2998 colon) | TGI (MDA-MB-435 melanoma) | TGI (BT-549 breast) | TGI (NCI-H226 lung) | TGI (NCI-H460 NSCLC) | TGI (OVCAR-3 ovarian) | TGI (HL-60(TB) leukemia) | TGI (LOX IMVI melanoma) | TGI (RXF 393 renal) | TGI (KM12 colon) | TGI (CAKI-1 renal) | TGI (A549 NSCLC) | TGI (MDA-MB-231 breast) | TGI (ACHN renal) | TGI (COLO 205 colon) | TGI (MCF7 breast) | TGI (NCI-H322M lung) | TGI (HOP-62 NSCLC) | TGI (HCT-116 colon) | TGI (SF-295 CNS) | TGI (M14 melanoma) | TGI (DU-145 prostate) | TGI (PC-3 prostate) | TGI (SNB-75 CNS) | TGI (NCI-H23 lung) | TGI (SK-MEL-5 melanoma) | TGI (HCT-15 colon) | TGI (A498 renal) | TGI (SK-OV-3 ovarian) | TGI (SK-MEL-28 melanoma) | TGI (U251 glioblastoma) | TGI (HS 578T breast)
50.5 µM: TGI (SR leukemia)

Cc1c(S(C)(=O)=O)c(-c2cc(F)cc(N3CCN(c4ccc(NS(=O)(=O)c5ccc(N[C@H](CCN6CCC(C(=O)OCCCP(=O)(O)O)CC6)CSc6ccccc6)c(S(=O)(=O)C(F)(F)F)c5)cc4)CC3)c2)c(-c2ccc(Cl)cc2)n1C(C)C
36.2 nM: TGI (MOLT-4 leukemia)
15.6 µM: TGI (HCC-2998 colon)
15 µM: TGI (MDA-MB-231 breast)
> 100 µM: TGI (SF-539 CNS) | TGI (OVCAR-4 ovarian) | TGI (NCI-H522 lung) | TGI (SN12C renal) | TGI (T-47D breast) | TGI (SR leukemia) | TGI (IGROV1 ovarian) | TGI (MDA-MB-468 breast) | TGI (TK-10 renal) | TGI (OVCAR-5 ovarian) | TGI (HT29 colon) | TGI (SW-620 colon) | TGI (UACC-257 melanoma) | TGI (MALME-3M melanoma) | TGI (UO-31 renal) | TGI (UACC-62 melanoma) | TGI (SF-268 CNS) | TGI (K-562 leukemia) | TGI (OVCAR-8 ovarian) | TGI (NCI/ADR-RES ovarian) | TGI (SNB-19 CNS) | TGI (MDA-MB-435 melanoma) | TGI (BT-549 breast) | TGI (NCI-H226 lung) | TGI (SK-MEL-2 melanoma) | TGI (NCI-H460 NSCLC) | TGI (OVCAR-3 ovarian) | TGI (HL-60(TB) leukemia) | TGI (LOX IMVI melanoma) | TGI (786-0 renal) | TGI (KM12 colon) | TGI (CAKI-1 renal) | TGI (A549 NSCLC) | TGI (ACHN renal) | TGI (COLO 205 colon) | TGI (MCF7 breast) | TGI (NCI-H322M lung) | TGI (HOP-62 NSCLC) | TGI (HCT-116 colon) | TGI (SF-295 CNS) | TGI (M14 melanoma) | TGI (DU-145 prostate) | TGI (PC-3 prostate) | TGI (NCI-H23 lung) | TGI (SK-MEL-5 melanoma) | TGI (HCT-15 colon) | TGI (A498 renal) | TGI (SK-OV-3 ovarian) | TGI (SK-MEL-28 melanoma) | TGI (U251 glioblastoma)
30.3 µM: TGI (RXF 393 renal)
inactive: GI50 (SF-539 CNS) > 100 µM | GI50 (OVCAR-4 ovarian) > 100 µM | GI50 (NCI-H522 lung) > 100 µM | GI50 (SN12C renal) > 100 µM | GI50 (T-47D breast) > 100 µM | GI50 (SR leukemia) 0.892 µM | GI50 (IGROV1 ovarian) > 100 µM | GI50 (MDA-MB-468 breast) 73.1 µM | GI50 (TK-10 renal) > 100 µM | GI50 (OVCAR-5 ovarian) > 100 µM | GI50 (HT29 colon) > 100 µM | GI50 (SW-620 colon) > 100 µM | GI50 (UACC-257 melanoma) > 100 µM | GI50 (MALME-3M melanoma) > 100 µM | GI50 (UO-31 renal) > 100 µM | GI50 (UACC-62 melanoma) > 100 µM | GI50 (SF-268 CNS) > 100 µM | GI50 (K-562 leukemia) > 100 µM | GI50 (OVCAR-8 ovarian) > 100 µM | GI50 (NCI/ADR-RES ovarian) > 100 µM | GI50 (SNB-19 CNS) > 100 µM | GI50 (MDA-MB-435 melanoma) > 100 µM | GI50 (BT-549 breast) > 100 µM | GI50 (NCI-H226 lung) > 100 µM | GI50 (SK-MEL-2 melanoma) > 100 µM | GI50 (NCI-H460 NSCLC) > 100 µM | GI50 (OVCAR-3 ovarian) > 100 µM | GI50 (HL-60(TB) leukemia) > 100 µM | GI50 (LOX IMVI melanoma) > 100 µM | GI50 ([…]-0 renal) > 100 µM | GI50 (KM12 colon) > 100000 nM | GI50 (CAKI-1 renal) > 100 µM | GI50 (A549 NSCLC) > 100 µM | GI50 (MDA-MB-231 breast) 945 nM | GI50 (ACHN renal) > 100 µM | GI50 (COLO 205 colon) > 100 µM | GI50 (MCF7 breast) > 100 µM | GI50 (NCI-H322M lung) > 100 µM | GI50 (HOP-62 NSCLC) > 100 µM | GI50 (HCT-116 colon) > 100 µM | GI50 (SF-295 CNS) > 100 µM | GI50 (M14 melanoma) > 100 µM | GI50 (DU-145 prostate) > 100 µM | GI50 (PC-3 prostate) > 100 µM | GI50 (NCI-H23 lung) > 100 µM | GI50 (SK-MEL-5 melanoma) > 100 µM | GI50 (HCT-15 colon) > 100 µM | GI50 (A498 renal) > 100 µM | GI50 (SK-OV-3 ovarian) > 100 µM | GI50 (SK-MEL-28 melanoma) > 100 µM | GI50 (U251 glioblastoma) > 100 µM
739 nM: TGI (HOP-92 NSCLC)
36.1 nM: TGI (RPMI-8226 leukemia)
178 nM: TGI (CCRF-CEM leukemia)
active: GI50 (HOP-92 NSCLC) 42.9 nM | GI50 (HCC-2998 colon) 425 nM | GI50 (RPMI-8226 leukemia) 13.1 nM | GI50 (RXF 393 renal) 120 nM | GI50 (CCRF-CEM leukemia) 41.2 nM | GI50 (MOLT-4 leukemia) 0.0152 µM
